Measurements from patent US20060153861A1, “BCR-ABL imatinib resistance-associated peptides and methods of use thereof” (priority 2004, published 2006).
Each block holds one molecule with its values, some of them ahead of it.

What was measured:
[1] = tested on: T2 cells pulsed with peptide; assay: Chromium-51 release cytotoxicity assay with peptide-stimulated T cells; assay type: cell-based, human; settings: for killing of T2 cells pulsed with kinase mutant sequence peptides: T cells generated by several stimulations with the peptide, not with control peptide or no peptide; for killing of cells expressing the native peptide: T cell lines after several stimulations with the heteroclitic peptide; for killing of T2 cells pulsed with the heteroclitic peptide: T cell lines after several stimulations, no lysis of T2 without peptide or with control peptide
Experimental: T lymphocytes were isolated from the same donors by use of negative selection by depletion with an anti-CD11b, anti-CD56 and CD19 MAb (Miltenyi, CA). A total of 1×10^6 pure T lymphocytes were cultured with 1×10^5 autologous DC in RPMI 1640 medium supplemented with 5% heat-inactivated human autologous plasma with bcr-abl synthetic peptides at a concentration of 10 μg/mL and β2 microglobulin at 2 μg/ml in 24-well plates in the presence of 5-10 ng/mL recombinant human IL-7 (Genzyme) and 0.1 ng/ml IL-12. After culture for 3 days 20 U/ml of IL-2 was added. After 10 days, 1×10^6 cells were stimulated again by adding 2×10^5 autologous, magnetically isolated CD14^+ monocytes together with 10 ng/ml of IL-7 and 20 U/ml IL-2 and peptide at a concentration of […]. In some cases, as indicated, after culture for another 7 days, the cells were stimulated a third time, in the same manner. After the second or third stimulation, CD8 T cells were magnetically isolated and cytotoxicity and gamma-IFN (interferon) secretion of these cells was then examined.
The presence of specific CTLs was measured in a standard 4 h-chromium release assay as follows. 4×10^6 targets were labeled with 300 μCi of Na2 ^51CrO+ (NEN Life Science Products, Inc. Boston, Mass.) for 1 hour at 37° C. After washing, cells at 2×10^6/ml concentration were incubated with or without synthetic peptides at a concentration of 10 μg/ml for 2 h at 20° C. in presence of β2 microglobulin at 3 μg/ml. After washing by centrifugation, target cells were resuspended in complete media at 5×10^4 cells per ml and plated in a 96 well U-bottom plate (Becton Dickinson®, NY) at 5×10^3 cells per well with effector cells at effector to target (E/T) ratios ranging from 100:1 to 10:1. Plates were incubated for 5 hours at 37° C. in 5% CO2. Supernatant fluids were harvested and radioactivity was measured -in a gamma counter. Percent specific lysis was determined from the following formula: 100× [(experimental release−spontaneous release)/(maximum release−spontaneous release)]. Maximum release was determined by lysis of targets in 2.5% Triton X-100.
In order to determine whether the in vitro-generated T cells were capable of cytolysis, T cell lines obtained after several stimulations with p210C and b2a2A3 were assayed by chromium-51 release assays using peptide pulsed target cell lines.

[2] = tested on: T cells from HLA A0201 donors challenged with peptide-pulsed T2 cells; assay: Gamma interferon ELISPOT of T cells after in vitro stimulation with peptide; assay type: cell-based, human; settings: for heteroclitic response (ELISPOT) / IFN-γ production (ELISPOT): CD3+ T cells from HLA A0201 donors; for heteroclitic response (ELISPOT): FIGS. 8 and 9; for IFN-γ production (ELISPOT): imatinib resistance-associated peptides, two or three stimulations; for recognition of the native sequence by T cells elicited with the peptide / immune response (IFN-gamma secretion, ELISPOT) / immune response as gamma-IFN secretion by CD3+ T cells: healthy HLA A0201 donors; for recognition of the native sequence by T cells elicited with the peptide: T2 pulsed with native peptide; for immune response (IFN-gamma secretion, ELISPOT): second or third round of peptide stimulation, peptide-pulsed T2 targets; for immune response as gamma-IFN secretion by CD3+ T cells: b2a2-derived peptides, FIG. 4
HLA A0201 molecules = biological target: T1, HLA A0201 molecules (Homo sapiens, UniProt P04439, D140Y/D185E/D98H/E176V/E277Q/G131W/G231S/I119V/I121R/I166T/I218V/L300P/L318F/N151K/N90K/P208A/P217A/Q86G/Q94H/R138H/R169H/T345S); assay: T2 assay for peptide binding to HLA A0201 molecules; settings: T2 cells, FIG. 1
T1 construct: endogenous in cells; host or cells: T2 (174xCEM.T2) human cell line
Experimental: (§1) T2 cells (TAP-, HLA-A0201^+) were incubated overnight at 27° C. at a concentration of 1×10^6 cells/ml in FCS-free RPMI medium supplemented with 5 μg/ml human β2microglobulin (Sigma, St Louis, Mo.) in the absence (negative control) or presence of either a positive reference tyrosinase peptide or test peptides at various final concentrations (50, 10, 1, and 0.1 μg/ml). Following a 4-hour incubation with 5 μg/ml brefeldin A (Sigma), T2 cells were labeled for 30 minutes at 4° C. with a saturating concentration of anti-HLA-A2.1 (BB7.2) monoclonal antibody (mAb), then washed twice. The cells were then incubated for 30 minutes at 4° C. with a saturating concentration of FITC-conjugated goat IgG F(ab′)2 anti-mouse Ig (Caltag, South San Francisco, Calif.), washed twice, fixed in PBS/1% paraformaldehyde and analyzed using a FACS Calibur® cytofluorometer (Becton Dickinson, Immunocytometry systems, San Jose, Calif.).
The mean intensity of fluorescence (MIF) observed for each peptide concentration (after dividing of the MIF observed without peptide) was used as an estimate of peptide binding and expressed as a fluorescence index. Stabilization assays were performed similarly. Following initial evaluation of peptide binding at time 0, cells were washed in RPMI complete medium to remove free peptides and incubated in the continuous presence of 0.5 pg/ml brefeldin-A for 2, 4, 6 or 8 hours. […]

HLA A0201 = HLA A0201 (Homo sapiens, UniProt P04439, D140Y/D185E/D98H/E176V/E277Q/G131W/G231S/I119V/I121R/I166T/I218V/L300P/L318F/N151K/N90K/P208A/P217A/Q86G/Q94H/R138H/R169H/T345S); assay: BIMAS predicted score for binding to HLA A0201; settings: analogue versus native CMLA2
Experimental: Peptides with potential CTL epitopes can be predicted by means of a peptide library-based scoring system for MHC class I-binding peptides. AA sequences of the human b3a2 and b2a2 fusion proteins were scanned for peptides with potential binding capacity for HLA A0201, a subtype encompassing 95% of the HLA-A02 allele. HLA-A0201 is expressed in about 40% of the Caucasian population.
Substitutions were determined using the software of the Bioinformatics & Molecular Analysis Section (National Institutes of Health, Washington, D.C.) (Parker K C, et al. J Immunol 1994;152(1):163-75; available at http://bimas.dcrt.nih.gov/cgi-bin/molbio/ken_parker_comboform), which ranks 9-mer or 10-mer peptides on a predicted half life dissociation coefficient from HLA class I molecules. Several analogue peptides were designed whereby one or both anchor amino acids or additional amino acids adjacent to anchor amino acids were modified. […] All the native peptides were predicted to have a half life of less than one minute. Most substitutions affected the primary or secondary anchor motifs (leucine in position 2 or valine in position 9 or 6) but in some cases, a tyrosine was substituted in position 1. […] Also depicted in Table 1 are the predicted half lives according to another software program, […] (Rammensee H G, et al., Immunogenetics 1995; 41(4): 178-228; available at http://syfpeithi.bmi-heidelberg.com).

[3] = biological target: T2, HLA-A0201 molecule on T2 cells (TAP-, HLA-A0201+) (human); assay: T2 assay, referred to in the ELISPOT example
T2 construct: Empty, thermolabile HLA-A0201 on live T2 cells; also called HLA-A2.1

[4] = biological target: T2, HLA-A0201 molecule on T2 cells (TAP-, …); assay: T2 binding and stabilization assay, flow cytometry with BB7.2
Experimental: as §1, with “HLA-A0201⁺)” for “HLA-A0201^+)”, “1×10⁶” for “1×10^6”, “β₂microglobulin” for “β2microglobulin”
The mean intensity of fluorescence (MIF) observed for each peptide concentration (after dividing of the MIF observed without peptide) was used as an estimate of peptide binding and expressed as a fluorescence index. Stabilization assays were performed similarly. Following initial evaluation of peptide binding at time 0, cells were washed in RPMI complete medium to remove free peptides and incubated in the continuous presence of 0.5 pg/ml brefeldin-A for 2, 4, 6 or 8 hours.
For peptides to be immunogenic, in an MHC class I-restricted context, they require the capacity to bind and stabilize MHC class I molecules on the live cell surface. Since the computer prediction models above have 60-80% predictive accuracy, direct measurement of the strength of the interaction between the peptides and the HLA-A0201 molecule was performed, with a conventional binding and stabilization assay that uses the antigen-transporting deficient (TAP2 negative) HLA-A0201 human T2 cells.

Molecule: IIIEFMTYV (listed as Homo sapiens) [T3A2]
killing of T2 cells pulsed with kinase mutant sequence peptides [1]: able to kill T2 cells pulsed with specific kinase mutant sequence peptides

Molecule: KLGGGQFGV (listed as Homo sapiens) [V2A3]
heteroclitic response (ELISPOT) [2]: stimulated heteroclitic responses

Molecule: KLGGGQYGV (listed as Homo sapiens) [V2A1]
IFN-γ production (ELISPOT) [2]: greater IFN-γ was produced following a third stimulation

Molecule: KLLQRPVAV (listed as Homo sapiens) [p210C]
killing of cells expressing the native peptide [1]: able to recognize and kill cells expressing the native peptide
killing of T2 cells pulsed with the heteroclitic peptide [1]: able to kill T2 cells pulsed with the heteroclitic peptides
immune responses in CML patients ([2]; 4 patients with chronic phase CML assayed): observed in two of the CML patients
frequency of CD8+ cells recognizing T2 pulsed with the synthetic peptide ([2]; CML patient, two rounds of stimulation): ~400 spot-forming cells (SCF) per 1×10^5 cells
recognition of the native sequence by T cells elicited with the peptide [2]: able to recognize their respective native sequences
immune response (IFN-gamma secretion, ELISPOT) [2]: most consistent and significant immune-responses

Molecule: KLSSKALQV (listed as Homo sapiens) [p210B]
immune response (IFN-gamma secretion, ELISPOT) [2]: no immune response

Molecule: KQSSKALQV (listed as Homo sapiens) [p210A]
immune response (IFN-gamma secretion, ELISPOT) [2]: no immune response

Molecule: KVYEGVWKV (listed as Homo sapiens) [K2A3]
killing of T2 cells pulsed with kinase mutant sequence peptides [1]: able to kill T2 cells pulsed with specific kinase mutant sequence peptides
heteroclitic response (ELISPOT) [2]: stimulated heteroclitic responses

binding to HLA A0201 in the T2 assay (HLA A0201 molecules): weak MHC binder
Molecule: SSKALQRPV (listed as Homo sapiens) [CMLA2, native b3a2 breakpoint peptide, previously described]

Molecule: TLFKQSSKV (listed as Homo sapiens) [p210D]
immune response (IFN-gamma secretion, ELISPOT) [2]: produced an immune response in some donors tested

Molecule: YIIIEFMTYV (listed as Homo sapiens) [T3B2]
heteroclitic response (ELISPOT) [2]: stimulated heteroclitic responses

Molecule: YLFKQSSKV (listed as Homo sapiens) [p210E]
immune response (IFN-gamma secretion, ELISPOT) [2]: produced an immune response in some donors tested

Molecule: YLGGGQFGV (listed as Homo sapiens) [V2A2]
IFN-γ production (ELISPOT) [2]: greater IFN-γ production following a second stimulation
recognition of the native sequence by T cells elicited with the peptide [2]: recognized native sequences

Molecule: YLINKEEAL (listed as Homo sapiens) [b2a2 A3]
killing of cells expressing the native peptide [1]: able to recognize and kill cells expressing the native peptide
killing of T2 cells pulsed with the heteroclitic peptide [1]: able to kill T2 cells pulsed with the heteroclitic peptides
recognition of the native sequence by T cells elicited with the peptide [2]: recognized the native sequence as well
immune response as gamma-IFN secretion by CD3+ T cells [2]: significant immune respose

Molecule: YLINKEEAV (listed as Homo sapiens) [b2a2 A4]
immune response as gamma-IFN secretion by CD3+ T cells [2]: significant immune respose

Molecule: YLINKVEAL (listed as Homo sapiens) [b2a2 A5]
immune response as gamma-IFN secretion by CD3+ T cells [2]: significant immune respose

binding to HLA A0201 in the T2 assay (HLA A0201 molecules): high avidity
increase of BIMAS prediction (HLA A0201): 700 fold
Molecule: YLKALQRPV (listed as Homo sapiens) [p210F]
recognition of the native sequence by T cells elicited with the peptide [2]: able to recognize their respective native sequences
immune response (IFN-gamma secretion, ELISPOT) [2]: most consistent and significant immune-responses

binding result [3]: binds
B1: CMLA2 native (peptide)
peptide: SSKALQRPV

binding result [4]: binds
B2: b2a2 A3 (analogue) (peptide)
peptide: YLINKEEAL

binding result [4]: binds
B3: b2a2 A4 (analogue) (peptide)
peptide: YLINKEEAV

binding result [4]: binds
B4: b2a2 A5 (analogue) (peptide)
peptide: YLINKVEAL

binding result [4]: binds
B5: p210Cn native (peptide)
peptide: KALQRPVAS
